Like-named read-outs stand apart in the source and are kept apart here.
Molecular target: T1, pSTAT3 (pY705-STAT3) (Homo sapiens, UniProt P40763)
T1 construct: host or cells: cryopreserved PBMC
Assay: MSD-pSTAT-PBMC Assay (pSTAT3, IL-6 stimulated)
Type: cell-based
Text: Cryopreserved Peripheral Blood Mononuclear Cells (PBMC) are from AllCells. Recombinant Human IL-4 and IL-6 are from Peprotech. Mouse monoclonal anti-STAT3 antibody, rabbit monoclonal anti-pY705-STAT3 antibody, rabbit monoclonal Anti-pY641-STAT6 antibody, and lysis buffer are from Cell Signaling Technology (CST). Mouse monoclonal anti-STAT6 antibody is from BioLegend. Assay plates, blocker, and anti-rabbit secondary antibody are from Meso Scale Discovery (MSD).
Cryopreserved PBMCs were thawed out and allowed to recover overnight in IMDM+10% heat-inactivated FBS prior to plating 50,000 (STAT3) or 25,000 (STAT6) cells per well in 96-well U-bottom tissue culture plates. Cells were treated with compound for 3 hrs, then stimulated with 10 ng/mL IL-6 (STAT3) or 1 ng/mL IL-4 (STAT6) for 10 min. Cells were then spun down and washed with ice-cold PBS prior to lysing the cell pellet with 1× lysis buffer (CST) with 1× HALT protease and phosphatase inhibitor cocktail (Thermo). Lysates were transferred to and incubated overnight at 4° C. with shaking in QuickPlex 96-well high bind assay plates (MSD) pre-coated overnight with 30 μL per well of 0.6 μg/mL mouse monoclonal anti-STAT3 antibody (STAT3) or 2 μg/mL mouse monoclonal anti-STAT6 antibody (STAT6) in 1×PBS, and pre-blocked for 1 hour with 3% Blocker-A (MSD). Captured protein in the assay plates were then washed and probed with 25 μL per well of 0.25 μg/ml rabbit monoclonal anti-pY705-STAT3 antibody (STAT3) or 0.18 μg/ml rabbit monoclonal Anti-pY641-STAT6 antibody (STAT6) in 1% Blocker-A for 1 hour at room temperature with shaking, then washed and probed with 25 ul per well of 1 ug/mi Sulfo-TAG Labeled Goat Anti-Rabbit Antibody (MSD) in 1% Blocker-A for 1 hour at room temperature with shaking. Assay plates were then washed and 150 μL of 1× Read Buffer-T (MSD) was added to each well prior to reading on an SQ120 MSD Plate Reader. Assay signal from each sample was subtracted by the signal from unstimulated control wells and normalized to DMSO control wells. IC50 values were calculated using Graph Pad Prism Dose-Response Nonlinear Regression with variable slope. For both pSTAT3 and pSTAT6 A=≤100 nM; B=>100-1000 nM; C=>1000-3000 nM; and D=>3 μM.

[1] = PBMC, compound 3 hrs, then 10 ng/mL IL-6 for 10 min, MSD pY705-STAT3, read-out: pSTAT3

T1 sequence (P40763 whole entry): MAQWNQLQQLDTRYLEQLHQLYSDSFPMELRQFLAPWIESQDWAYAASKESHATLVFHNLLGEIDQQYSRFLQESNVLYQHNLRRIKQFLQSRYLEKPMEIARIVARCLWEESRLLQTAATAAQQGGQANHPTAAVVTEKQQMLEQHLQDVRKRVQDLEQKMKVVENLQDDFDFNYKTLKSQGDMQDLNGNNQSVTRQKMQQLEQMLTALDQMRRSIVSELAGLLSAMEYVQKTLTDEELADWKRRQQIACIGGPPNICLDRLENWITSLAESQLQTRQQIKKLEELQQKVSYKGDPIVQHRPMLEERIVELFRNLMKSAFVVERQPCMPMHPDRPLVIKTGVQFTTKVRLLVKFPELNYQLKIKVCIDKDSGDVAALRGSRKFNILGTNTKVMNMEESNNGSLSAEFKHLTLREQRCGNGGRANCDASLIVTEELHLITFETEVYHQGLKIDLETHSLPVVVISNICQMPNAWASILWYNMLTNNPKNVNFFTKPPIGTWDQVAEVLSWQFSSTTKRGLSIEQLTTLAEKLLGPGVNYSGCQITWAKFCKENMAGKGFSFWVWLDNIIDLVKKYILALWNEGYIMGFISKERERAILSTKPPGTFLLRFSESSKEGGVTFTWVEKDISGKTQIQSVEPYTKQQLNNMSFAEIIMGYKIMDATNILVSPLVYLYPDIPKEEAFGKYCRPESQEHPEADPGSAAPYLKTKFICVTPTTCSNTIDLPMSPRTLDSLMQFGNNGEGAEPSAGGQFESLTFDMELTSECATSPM

SMILES: CC(C)OC(=O)[C@H](C)N[P@](=O)(Cc1ccc2sc(C(=O)N[C@H]3C[C@@H]4C[C@@H]4C[C@H]4CC[C@@H](C(=O)N5CC(C(=O)N6CCOCC6)C5)N4C3=O)cc2c1)Oc1ccccc1 (single isomer, unassigned) [Example 6]
- IC50 [1]: 1000 to 3000 nM

SMILES: CCCOC(=O)[C@@H](C)NP(=O)(Cc1ccc2sc(C(=O)N[C@H]3C[C@@H]4C[C@]4(C)C[C@H]4CC[C@@H](C(=O)N5CC(c6cccnc6)C5)N4C3=O)cc2c1)Oc1ccccc1 (stereo in doubt) [Compound 240, propyl(((2-(((3S,6S,7aR,8aS,9aR)-8a-methyl-5-oxo-3-(3-(pyridin-3-yl)azetidine-1-carbonyl)decahydro-1H-cyclopropa[d]pyrrolo[1,2-a]azocin-6-yl)carbamoyl)benzo[b]thiophen-5-yl)methyl)(phenoxy)phosphoryl)-L-alaninate]
- IC50: < 100 nM

SMILES: CCCOC(=O)[C@@H](C)NP(=O)(Cc1ccc2sc(C(=O)N[C@H]3C[C@H]4C[C@H]4C[C@H]4CC[C@@H](C(=O)N5CC(c6cnccc6C)C5)N4C3=O)cc2c1)Oc1ccccc1 (stereo in doubt) [Compound 242, propyl(((2-(((3S,6S,7aR,8aS,9aR)-3-(3-(4-methylpyridin-3-yl)azetidine-1-carbonyl)-5-oxodecahydro-1H-cyclopropa[d]pyrrolo[1,2-a]azocin-6-yl)carbamoyl)benzo[b]thiophen-5-yl)methyl)(phenoxy)phosphoryl)-L-alaninate]
- IC50: < 100 nM

SMILES: CCCOC(=O)[C@@H](C)NP(=O)(Oc1ccccc1)C(F)c1ccc2sc(C(=O)N[C@H]3C[C@@H]4C[C@@H]4C[C@H]4CC[C@@H](C(=O)N5C[C@@H]6[C@H]5CCN6C(C)=O)N4C3=O)cc2c1 (stereo in doubt) [Compound 291, propyl(((2-(((3S,6S,7aS,8aR,9aR)-3-((1S,5S)-2-acetyl-2,6-diazabicyclo[3.2.0]heptane-6-carbonyl)-5-oxodecahydro-1H-cyclopropa[d]pyrrolo[1,2-a]azocin-6-yl)carbamoyl)benzo[b]thiophen-5-yl)fluoromethyl)(phenoxy)phosphoryl)-L-alaninate]
- IC50: < 100 nM

SMILES: CCCOC(=O)C(C)NP(=O)(Oc1ccccc1)C(F)c1ccc2sc(C(=O)N[C@H]3C[C@@H]4C[C@@H]4C[C@H]4CC[C@@H](C(=O)N5C[C@H]6[C@@H]5CCN6c5cccnc5)N4C3=O)cc2c1 (stereo in doubt) [Compound 297, propyl ((fluoro(2-(((3S,6S,7aS,8aR,9aR)-5-oxo-3-((1S,5S)-2-(pyridin-3-yl)-2,6-diazabicyclo[3.2.0]heptane-6-carbonyl)decahydro-1H-cyclopropa[d]pyrrolo[1,2-a]azocin-6-yl)carbamoyl)benzo[b]thiophen-5-yl)methyl)(phenoxy)phosphoryl)-L-alaninate]
- IC50 [1]: < 100 nM

SMILES: CCCOC(=O)C(C)NP(=O)(Oc1ccccc1)C(F)c1ccc2sc(C(=O)N[C@H]3C[C@@H]4C[C@@H]4C[C@H]4CC[C@@H](C(=O)N5C[C@@H]6[C@H]5CCN6c5cccnc5)N4C3=O)cc2c1 (stereo in doubt) [Compound 298, propyl ((fluoro(2-(((3S,6S,7aS,8aR,9aR)-5-oxo-3-((1R,5R)-2-(pyridin-3-yl)-2,6-diazabicyclo[3.2.0]heptane-6-carbonyl)decahydro-1H-cyclopropa[d]pyrrolo[1,2-a]azocin-6-yl)carbamoyl)benzo[b]thiophen-5-yl)methyl)(phenoxy)phosphoryl)-L-alaninate]
- IC50 [1]: < 100 nM

SMILES: CCCOC(=O)[C@H](C)NP(=O)(Oc1ccccc1)C(F)c1ccc2sc(C(=O)N[C@H]3C[C@H]4C[C@H]4C[C@H]4CC[C@@H](C(=O)N5CC(c6cnccc6N6CCOCC6)C5)N4C3=O)cc2c1 (stereo in doubt) [Compound 409, propyl(((R)-fluoro(2-(((3S,6S,7aS,8aR,9aR)-3-(3-(4-morpholinopyridin-3-yl)azetidine-1-carbonyl)-5-oxodecahydro-1H-cyclopropa[d]pyrrolo[1,2-a]azocin-6-yl)carbamoyl)benzo[b]thiophen-5-yl)methyl)(phenoxy)phosphoryl)-L-alaninate]
- IC50: < 100 nM

SMILES: CCCOC(=O)[C@H](C)N[P@@](=O)(Oc1ccccc1)[C@H](F)c1ccc2sc(C(=O)N[C@H]3C[C@@H]4C[C@@H]4C[C@H]4CC[C@@H](C(=O)N5CC(c6cnccc6N(C)C)C5)N4C3=O)cc2c1 (stereo in doubt) [Compound 415, propyl((R)-((R)-(2-(((3S,6S,7aS,8aR,9aR)-3-(3-(4-(dimethylamino)pyridin-3-yl)azetidine-1-carbonyl)-5-oxodecahydro-1H-cyclopropa[d]pyrrolo[1,2-a]azocin-6-yl)carbamoyl)benzo[b]thiophen-5-yl)fluoromethyl)(phenoxy)phosphoryl)-L-alaninate]
- IC50: < 100 nM

SMILES: CCCOC(=O)[C@H](C)NP(=O)(Oc1ccccc1)[C@@H](F)c1ccc2sc(C(=O)N[C@H]3C[C@H]4C[C@H]4C[C@H]4CC[C@@H](C(=O)N5CC(c6cnccc6N6CC[C@H]6COC)C5)N4C3=O)cc2c1 (stereo in doubt) [Compound 417, propyl(((R)-fluoro(2-(((3S,6S,7aS,8aR,9aR)-3-(3-(4-((S)-2-(methoxymethyl)azetidin-1-yl)pyridin-3-yl)azetidine-1-carbonyl)-5-oxodecahydro-1H-cyclopropa[d]pyrrolo[1,2-a]azocin-6-yl)carbamoyl)benzo[b]thiophen-5-yl)methyl)(phenoxy)phosphoryl)-L-alaninate]
- IC50: < 100 nM

SMILES: O=C(OCOP(=O)(Cc1ccc2sc(C(=O)N[C@H]3C[C@@H]4C[C@@H]4C[C@H]4CC[C@@H](C(=O)N5CC(C(=O)N6CCOCC6)C5)N4C3=O)cc2c1)OCOC(=O)OC1CCOCC1)OC1CCOCC1 [Compound 130, ((((2-(((3S,6S,7aS, 8aR,9aR)-3-(3-(morpholine-4-carbonyl)azetidine-1-carbonyl)-5-oxodecahydro-1H-cyclopropa[d]pyrrolo[1,2-a]azocin-6-yl)carbamoyl)benzo[b]thiophen-5-yl)methyl)phosphoryl)bis (oxy))bis (methylene) bis(tetrahydro-2H-pyran-4-yl) bis(carbonate)]
- IC50 [1]: > 3000 nM

SMILES: CC(C)(CO)C(=O)OCOP(=O)(OCOC(=O)C(C)(C)CO)C(F)(F)c1ccc2sc(C(=O)N[C@H]3C[C@@H]4C[C@@H]4C[C@H]4CC[C@@H](C(=O)N5CC(C(=O)N6CCOCC6)C5)N4C3=O)cc2c1 [Compound 132, (((difluoro(2-(((3S,6S,7aS, 8aR,9aR)-3-(3-(morpholine-4-carbonyl)azetidine-1-carbonyl)-5-oxodecahydro-1H-cyclopropa[d]pyrrolo[1,2-a]azocin-6-yl)carbamoyl)benzo[b]thiophen-5-yl)methyl)phosphoryl)bis(oxy)) bis(methylene) bis(3-hydroxy-2,2-dimethyl-propanoate)]
- IC50 [1]: > 3000 nM

SMILES: CC(C)OC(=O)[C@H](Cc1ccccc1)NP(=O)(Cc1ccc2sc(C(=O)N[C@H]3C[C@@H]4C[C@@H]4C[C@H]4CC[C@@H](C(=O)N5CC(C(=O)N6CCOCC6)C5)N4C3=O)cc2c1)Oc1ccccc1 (stereo partly drawn) [Compound 134, isopropyl (((2-(((3S,6S,7aS, 8aR,9aR)-3-(3-(morpholine-4-carbonyl)azetidine-1-carbonyl)-5-oxodecahydro-1H-cyclopropa[d]pyrrolo[1,2-a]azocin-6-yl)carbamoyl)benzo[b]thiophen-5-yl)methyl) (phenoxy)phosphoryl)-L-phenyl-alaninate]
- IC50 [1]: 100 to 1000 nM

SMILES: CC(C)OC(=O)[C@H](C)NP(=O)(Cc1ccc2sc(C(=O)N[C@H]3C[C@@H]4C[C@@H]4C[C@H]4CC[C@@H](C(=O)N5CC(C(=O)N6CCOCC6)C5)N4C3=O)cc2c1)N[C@@H](C)C(=O)OC(C)C [Compound 147, diisopropyl 2,2′-((((2-(((3S,6S,7aS, 8aR,9aR)-3-(3-(morpholine-4-carbonyl)azetidine-1-carbonyl)-5-oxodecahydro-1H-cyclopropa[d]pyrrolo[1,2-a]azocin-6-yl)carbamoyl)benzo[b]thiophen-5-yl)methyl)phosphoryl)bis(azanediyl)) (2S,2′S)-dipropionate]
- IC50 [1]: > 3000 nM

SMILES: CC(C)OC(=O)[C@H](C)NP(=O)(Oc1ccccc1)C(F)c1ccc2sc(C(=O)N[C@H]3C[C@@H]4C[C@@H]4C[C@H]4CC[C@@H](C(=O)N5CC(C(=O)N6CCOCC6)C5)N4C3=O)cc2c1 (stereo partly drawn) [Compound 153, isopropyl ((fluoro(2-(((3S,6S,7aS, 8aR,9aR)-3-(3-(morpholine-4-carbonyl)azetidine-1-carbonyl)-5-oxodecahydro-1H-cyclopropa[d]pyrrolo[1,2-a]azocin-6-yl)carbamoyl)benzo[b]thiophen-5-yl)methyl)phenoxy) phosphoryl)-L-alaninate]
- IC50 [1]: 100 to 1000 nM

— patent US20250215030A1, “STAT MODULATORS AND USES THEREOF” (Recludix Pharma, Inc., priority 2022, published 2025)
